Key:
PAI-1 [1] = target: T1, PAI-1 (Homo sapiens, UniProt P05121); experiment: Measurement of PAI-1 inhibitory activity (t-PA / chromogenic substrate S-2288); settings: statement in words referring to the test example (compound at 20 μM or 50 μM); numeric PAI-1 activities (%) only in FIGS. 1 to 7
Description: The change in PAI-1 activity can be examined by setting, as an index, a reaction product produced by the action of t-PA on a substrate. […] It can be judged that when the amount of reaction product is larger, the PAI-1 inhibitory action is higher.
More specifically, human-derived PAI-1 was added to a 0.1% Tween 80-containing 100 mM Tris-HCl (pH 8) solution containing each of the above compounds in a given concentration (20 μM or 50 μM), and incubated at 37° C. for 15 minutes. Subsequently, human-derived tissue plasminogen activator (t-PA) (manufactured by American Diagnostica, Inc. (USA); the same applies hereinafter) adjusted to 0.3 pmol/μL, was added thereto, and further incubated at 37° C. for 15 minutes.

PAI-1 [2] = target: T1, PAI-1; experiment: Reference Test Example (1) PAI-1 inhibitory activity assay (t-PA / S-2288); assay type: biochemical; parameters: purchased Molecular Innovation(s) Inc. (USA); settings: concentrations of 35 μM and 50 μM; FIG. 8
Description: P-nitranilide removed from the chromogenic substrate (S-2288) by t-PA action was measured using a spectrophotometer at an absorbance of 405 nm at 5-minute intervals for 30 minutes.
Comparative tests were carried out in the same manner using, in place of the above test compounds, a compound (tiplaxtinin) of the formula below used as an antithrombotic drug in US clinical trials (provided that the given concentrations were 20, 35, and 50 μM).
FIGS. 8 (A), (B), and (C) each show PAI-1 activity (%) when the compound a (concentrations: 20, 35, and 50 μM), the compound b (concentrations: 20, 35, and 50 μM), and tiplaxtinin (comparative compound) (concentrations: 20, 35, and 50 μM) are added, respectively.

PAI-1 [3] = target: T1, PAI-1; experiment: Reference Test Example (2) evaluation of fibrinolytic action (fibrin plate, mixture of PAI-1, t-PA and test compound); assay type: biochemical; parameters: purchased Molecular Innovations Inc. (USA); settings: room temperature, 18 hours
Description: The compounds a and b were evaluated for fibrinolytic action in accordance with the document (Matsuo, O. et al., Haemostasis, 16, 43-50 (1986)).
More specifically, an aqueous solution (containing 25 mM barbital-sodium, 50 mM NaCl, and 25 mM CaCl2) containing a concentration of 1.5 mg/mL of fibrinogen (produced by Organon Teknica) was added, on a 9 cm-plate, to thrombin dissolved in 0.2 mL of physiological saline (10NIH U/mL: produced by Mochida Pharmaceutical Co., Ltd.), and the mixture was allowed to stand at room temperature for 2 hours. Using this mixture, fibrinolysis assay was conducted.
Namely, a mixture of PAI-1, t-PA, and each of the test compounds was dropped onto the plate and incubated at room temperature for 18 hours. After the incubation, fibrinolysis due to plasminogen activation was measured from the lysis area on the plate.

[4] = tested on: mouse model with pulmonary fibrosis artificially induced by bleomycin; experiment: Reference Test Example (3) effects on bleomycin-induced pulmonary fibrosis; assay type: in vivo, C57BL/6 mouse; settings: scored from 0 to 8 (method of Ashcort et al.); bleomycin + compound b 200 mg/kg p.o. twice/day for 14 days; FIG. 9
Description: A C57BL/6 mouse (male, body weight: 19 to 21 g) was intraperitoneally anesthetized with pentobarbital, and an incision was made on the cervical organ. Ten mice were used as controls. The control mice (n=10) were endotracheally administered bleomycin (produced by Nippon Kayaku Co., Ltd.) (1.5 U/kg) lysed in physiological saline, twice a day for 14 days. On the other hand, the test mice were subjected to forcible oral administration with the compound b (200 mg/kg), suspended in a 0.5% carboxymethyl cellulose aqueous solution, twice a day for 14 days, in addition to the above endotracheal administration. Then, the lung tissues taken from these control mice and the test mice were analyzed, and further assayed for hydroxyproline levels. The hydroxyproline levels in the lung tissues were assayed in terms of the level in the hydrolysate of the lung tissues as described in the method of Kivirikko et al. (Anal. Biochem. 19, 249-255 (1967)). The levels (severity) of pulmonary fibrosis were scored from 0 to 8, based on the method of Ashcort et al. (J. Clin. Pathol. 41, 467-470 (1988)). Further, the control mice and the test mice were assayed for plasma PAI-1 activity (ng/mL).

T1 sequence (P05121 24-402): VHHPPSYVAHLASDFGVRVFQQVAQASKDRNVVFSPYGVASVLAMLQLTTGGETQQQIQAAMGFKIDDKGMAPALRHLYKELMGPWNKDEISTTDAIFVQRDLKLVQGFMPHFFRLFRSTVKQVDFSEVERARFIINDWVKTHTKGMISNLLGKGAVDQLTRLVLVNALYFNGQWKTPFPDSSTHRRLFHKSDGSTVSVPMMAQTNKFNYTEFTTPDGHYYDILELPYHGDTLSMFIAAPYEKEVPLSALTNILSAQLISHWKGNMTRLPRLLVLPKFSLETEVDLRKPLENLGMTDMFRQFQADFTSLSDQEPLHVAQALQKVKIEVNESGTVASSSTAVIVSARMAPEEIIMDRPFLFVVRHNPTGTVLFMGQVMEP

Compound	inhibitory action on PAI-1 activity (PAI-1 [1])	further results
O=C(COCC(=O)Nc1ccc(Cl)cc1C(=O)O)Nc1ccc(-c2ccncc2)cc1 [Compound 1, 5-chloro-2-([(2-oxo-2-([4-(pyridin-4-yl)phenyl]amino)ethoxy)acetyl]amino)benzoic acid]	excellent inhibitory action on PAI-1 activity	
O=C(COCC(=O)Nc1ccc(Cl)cc1C(=O)O)Nc1cccc(-c2ccncc2)c1 [Compound 2, 5-chloro-2-([(2-oxo-2-([3-(pyridin-4-yl)phenyl]amino)ethoxy)acetyl]amino)benzoic acid]	excellent inhibitory action on PAI-1 activity	
O=C(COCC(=O)NC1CCCCCCCCCCC1)Nc1ccc(Cl)cc1C(=O)O [Compound 11, 5-chloro-2-(([2-(cyclododecylamino)-2-oxoethoxy]acetyl)amino)benzoic acid]	excellent inhibitory action on PAI-1 activity	
O=C(COCC(=O)N(c1ccccc1)C1CCCCC1)Nc1ccc(Cl)cc1C(=O)[O-].[Na+] [Compound 15, 5-chloro-2-[((2-[cyclohexyl(phenyl)amino]-2-oxoethoxy)acetyl)amino]benzoic acid.sodium salt]	excellent inhibitory action on PAI-1 activity	
Cc1ccc(-c2ccc(F)cc2)cc1NC(=O)C(=O)Nc1ccc(Cl)cc1C(=O)[O-].[Na+] [Compound 20, 5-chloro-2-(([(4′-fluoro-4-methylbiphenyl-3-yl)amino](oxo)acetyl)amino)benzoic acid.sodium salt]	excellent inhibitory action on PAI-1 activity	
CC(=O)Nc1ccc(-c2ccc(C)c(NC(=O)COCC(=O)Nc3ccc(Cl)cc3C(=O)O)c2)cc1 [Compound 44, 2-([(2-([4′-(acetylamino)-4-methylbiphenyl-3-yl]amino)-2-oxoethoxy)acetyl]amino)-5-chlorobenzoic acid]	excellent inhibitory action on PAI-1 activity	
O=C(COCC(=O)Nc1ccc(Cl)cc1C(=O)O)Nc1cccc(Cc2ccoc2)c1 [Compound 55, 5-chloro-2-([(2-([3-(furan-3-ylmethyl)phenyl]amino)-2-oxoethoxy)acetyl]amino)benzoic acid]	excellent inhibitory action on PAI-1 activity	
O=C(COCC(=O)Nc1ccc(Cl)cc1C(=O)O)Nc1cccc(-c2cccs2)c1 [Compound 63, 5-chloro-2-([(2-oxo-2-([3-(thiophen-2-yl)phenyl]amino)ethoxy)acetyl]amino)benzoic acid]	excellent inhibitory action on PAI-1 activity	
O=C(COCC(=O)Nc1ccc(Cl)cc1C(=O)O)Nc1ccc(-c2ccoc2)cc1 [Compound 64, 5-chloro-2-([(2-([4-(furan-3-yl)phenyl]amino)-2-oxoethoxy)acetyl]amino)benzoic acid]	excellent inhibitory action on PAI-1 activity	
CCC(CC(=O)Nc1scc(-c2ccccc2)c1C(=O)O)C(=O)Nc1scc(-c2ccccc2)c1C(=O)O (centres unmarked) [compound a, 2-[3-(3′-carboxy-4′-phenylthiophen-2′-ylcarbamoyl)-pentanoylamino]-4-phenylthiophen-3-carboxylic acid]		PAI-1 activity inhibitory action compared with tiplaxtinin (PAI-1 [2]): higher PAI-1 activity inhibitory action at concentrations of 35 μM and 50 μM than tiplaxtinin; fibrinolytic action (lysis area on fibrin plate) (PAI-1 [3]): inhibit fibrinolysis suppression caused by PAI-1
CCC(CC(=O)Nc1scc(-c2cccs2)c1C(=O)O)C(=O)Nc1scc(-c2cccs2)c1C(=O)O (centres unmarked) [compound b, 2-[3-(3′-carboxy-4′-thienylthiophen-2′-ylcarbamoyl)-pentanoylamino]-4-thienylthiophen-3-carboxylic acid]		PAI-1 activity inhibitory action compared with tiplaxtinin (PAI-1 [2]): higher PAI-1 activity inhibitory action at concentrations of 35 μM and 50 μM than tiplaxtinin; fibrosis score [4]: 2.9±0.42; fibrinolytic action (lysis area on fibrin plate) (PAI-1 [3]): inhibit fibrinolysis suppression caused by PAI-1
